Patent publication US20050208496A1, “Methods of testing for bronchial asthma or chronic obstructive pulmonary disease” (Genox Research, Inc., priority 2002, published 2005)

Test system: respiratory epithelial cells

IL-13: human IL-13 (Peprotech, Inc.) added to the medium at 50 ng/mL to stimulate respiratory epithelial cells
DPP4 (34823_at) expression fold change upon IL-13 stimulation (lot 2, Day 7, AI method): 10 fold | DPYD (38220_at) expression fold change upon IL-13 stimulation (lot 2, Day 7, AI method): 2.1 fold | FADS3 (43394_s_at) expression fold change (lot 2, Day 7, AI method): 9.8 fold | FLJ10261 (43366_at) expression fold change (lot 2, Day 7, AI method): 7.9 fold | FLJ10261 (43963_at) expression fold change (lot 2, Day 7, AI method): 6.2 fold | FLJ14281 (50209_at) expression fold change (lot 2, Day 7, AI method): 2 fold | FLJ22332 (56959_at) expression fold change (lot 2, Day 7, AI method): 3.6 fold | FLJ22693 (53777_at) expression fold change (lot 2, Day 7, AI method): 1.6 fold | G1P3 (1358_s_at) expression, fold change upon IL-13 stimulation (lot 2, Day 7, AI method): 10.9 fold | H11 (56474_at) expression fold change (lot 2, Day 7, AI method): 2.1 fold | HDAC9 (37483_at) expression fold change upon IL-13 stimulation (lot 2, Day 7, AI method): 26.1 fold | HLA-F (37420_i_at) expression, fold change upon IL-13 stimulation (lot 2, Day 7, AI method): 2.8 fold | HLA-F (37421_f_at) expression, fold change upon IL-13 stimulation (lot 2, Day 7, AI method): 2.2 fold | HLA-F (49203_f_at) expression fold change (lot 2, Day 7, AI method): 2.8 fold | HLALS (34427_g_at) expression, fold change upon IL-13 stimulation (lot 2, Day 7, AI method): 2 fold | HS3ST1 (41556_s_at) expression fold change upon IL-13 stimulation (lot 2, Day 7, AI method): 2.5 fold | HSD17B2 (38178_at) expression fold change upon IL-13 stimulation (lot 2, Day 7, AI method): 3.5 fold | HSPA5 (47634_at) expression fold change (lot 2, Day 7, AI method): 2.6 fold | HUMRTVLH3 (34702_f_at) expression, fold change upon IL-13 stimulation (lot 2, Day 7, AI method): 3.1 fold | Human hbc647 mRNA sequence (34759_at) expression, fold change upon IL-13 stimulation (lot 2, Day 7, AI method): 2.9 fold | ICAMt (32640_at) expression fold change upon IL-13 stimulation (lot 2, Day 7, AI method): 4.1 fold | IFI27 (425_at) expression, fold change upon IL-13 stimulation (lot 2, Day 7, AI method): 4.7 fold | IFI27 (48864_at) expression fold change (lot 2, Day 7, AI method): 3.3 fold | IFI30 (39728_at) expression, fold change upon IL-13 stimulation (lot 2, Day 7, AI method): 2.3 fold | IFIT1 (915_at) expression, fold change upon IL-13 stimulation (lot 2, Day 7, AI method): 7.7 fold | IFIT4 (38584_at) expression, fold change upon IL-13 stimulation (lot 2, Day 7, AI method): 3.6 fold | IL13RA2 (1016_s_at) expression fold change upon IL-13 stimulation (lot 2, Day 7, AI method): 36.5 fold | IRF7 (36412_s_at) expression fold change (lot 2, Day 7, AI method): 3.6 fold | IRLB (32961_at) expression fold change (lot 2, Day 7, AI method): 2 fold | ISG15 (1107_s_at) expression, fold change upon IL-13 stimulation (lot 2, Day 7, AI method): 4.3 fold | ISG15 (38432_at) expression, fold change upon IL-13 stimulation (lot 2, Day 7, AI method): 6.9 fold | KIAA0469 (37230_at) expression, fold change upon IL-13 stimulation (lot 2, Day 7, AI method): 3 fold | KIAA0537 (33787_at) expression, fold change upon IL-13 stimulation (lot 2, Day 7, AI method): 4.8 fold | KIAA1199 (36070_at) expression, fold change upon IL-13 stimulation (lot 2, Day 7, AI method): 3.4 fold | KIAA1268 (57050_at) expression fold change (lot 2, Day 7, AI method): 1.7 fold | KIAAI268 (59516_at) expression fold change (lot 2, Day 7, AI method): 5.9 fold | KRT16 (601_s_at) expression fold change (lot 2, Day 7, AI method): 2 fold | LAMP3 (37168_at) expression, fold change upon IL-13 stimulation (lot 2, Day 7, AI method): 3 fold | LOC64116 (40456_at) expression, fold change upon IL-13 stimulation (lot 2, Day 7, AI method): 3 fold | LRPAP1 (36194_at) expression, fold change upon IL-13 stimulation (lot 2, Day 7, AI method): 2.2 fold | MAT2A (32571_at) expression fold change upon IL-13 stimulation (lot 2, Day 7, AI method): 2.9 fold | MDA5 (51920_at) expression fold change (lot 2, Day 7, AI method): 2.8 fold | MED6 (35432_at) expression fold change (lot 2, Day 7, AI method): 2 fold | MET (1609_g_at) expression, fold change upon IL-13 stimulation (lot 2, Day 7, AI method): 3.4 fold | MET (1812_s_at) expression, fold change upon IL-13 stimulation (lot 2, Day 7, AI method): 5.8 fold | MET (35684_at) expression, fold change upon IL-13 stimulation (lot 2, Day 7, AI method): 2.4 fold | MFHAS1 (50388_at) expression fold change (lot 2, Day 7, AI method): 2.4 fold | MICB (35937_at) expression, fold change upon IL-13 stimulation (lot 2, Day 7, AI method): 5.6 fold | MKP-L (38272_at) expression, fold change upon IL-13 stimulation (lot 2, Day 7, AI method): 5.1 fold | MMP7 (668_s_at) expression, fold change upon IL-13 stimulation (lot 2, Day 7, AI method): 2 fold | MP1 (34839_at) expression, fold change upon IL-13 stimulation (lot 2, Day 7, AI method): 2.4 fold | MXI (37014_at) expression fold change (lot 2, Day 7, AI method): 4.2 fold | NCF2 (41038_at) expression fold change (lot 2, Day 7, AI method): 4.2 fold | NFIL3 (37544_at) expression fold change (lot 2, Day 7, AI method): 2.7 fold | NTRK1 (36805_s_at) expression, fold change upon IL-13 stimulation (lot 2, Day 7, AI method): 4.9 fold | OAF (39695_at) expression, fold change upon IL-13 stimulation (lot 2, Day 7, AI method): 11.4 fold | OSF-2 (1451_s_at) expression fold change upon IL-13 stimulation (lot 2, Day 7, AI method): 46.4 fold | PAK2 (1560_g_at) expression, fold change upon IL-13 stimulation (lot 2, Day 7, AI method): 3.8 fold | PITPNB (353_at) expression, fold change upon IL-13 stimulation (lot 2, Day 7, AI method): 2 fold | PITPNB (35017_f_at) expression, fold change upon IL-13 stimulation (lot 2, Day 7, AI method): 2.4 fold | PMCH (32005_at) expression fold change (lot 2, Day 7, AI method): 4.3 fold | PSMB9 (38287_at) expression fold change upon IL-13 stimulation (lot 2, Day 7, AI method): 2.4 fold | PVRL2 (50320_g_at) expression fold change (lot 2, Day 7, AI method): 2.2 fold | RASGRP1 (33291_at) expression fold change (lot 2, Day 7, AI method): 4.2 fold | SECTM1 (41045_at) expression, fold change upon IL-13 stimulation (lot 2, Day 7, AI method): 4.6 fold | SERPINB2 (37185_at) expression fold change (lot 2, Day 7, AI method): 3.4 fold | SERPINB4 (1549_s_at) expression fold change (lot 2, Day 7, AI method): 15 fold | SIAT1 (41352_at) expression fold change upon IL-13 stimulation (lot 2, Day 7, AI method): 2.4 fold | SLC26A4, pendrin (36376_at) expression fold change (lot 2, Day 7, AI method): 58.2 fold | SPHK1 (51923_at) expression fold change (lot 2, Day 7, AI method): 2.5 fold | SSI-1 (41592_at) expression, fold change upon IL-13 stimulation (lot 2, Day 7, AI method): 11.3 fold | STAT1 (32859_at) expression fold change (lot 2, Day 7, AI method): 2.6 fold | STAT1 (33339_g_at) expression fold change (lot 2, Day 7, AI method): 2.5 fold | TGFB2 (1262_s_at) expression fold change upon IL-13 stimulation (lot 2, Day 7, AI method): 5.9 fold | TGM2 (38404_at) expression fold change upon IL-13 stimulation (lot 2, Day 7, AI method): 6 fold | TSPAN-3 (38612_at) expression, fold change upon IL-13 stimulation (lot 2, Day 7, AI method): 2.7 fold | TXNRD1 (39425_at) expression fold change upon IL-13 stimulation (lot 2, Day 7, AI method): 3.3 fold | UFD1L (811_at) expression, fold change upon IL-13 stimulation (lot 2, Day 7, AI method): 3.2 fold | W06879 (57696_at) expression fold change (lot 2, Day 7, AI method): 2 fold | ZNF263 (33288_i_at) expression fold change (lot 2, Day 7, AI method): 2 fold | cig5 (38549_at) expression, fold change upon IL-13 stimulation (lot 2, Day 7, AI method): 7.4 fold | AA045020 (44676_at) expression change (lot 2 Day 7 AI): −7.1 | AA053401 (56234_r_at) expression change (lot 2 Day 7 AI): −3.2 | AA059445 46293_at expression change (lot 2 Day 7 AI): −11.7 | AA059458 (65626_at) expression change (lot 2 Day 7 AI): −4.6 | AA079839 (69289_at) expression change (lot 2 Day 7 AI): −2.3 | AA151265 (60939_i_at) expression change (lot 2 Day 7 AI): −2.7 | AA151265 (60940_r_at) expression change (lot 2 Day 7 AI): −11.6 | AA160156 (47578_at) expression change (lot 2 Day 7 AI): −3.1 | AA203423 (65699_at) expression change (lot 2 Day 7 AI): −4.7 | AA369887 (87539_i_at) expression change (lot 2 Day 7 AI): −2.6 | AA398155 (48999_at) expression change (lot 2 Day 7 AI): −3.8 | AA400080 (57282_at) expression change (lot 2 Day 7 AI): −4.1 | AA422178 (53747_at) expression change (lot 2 Day 7 AI): −32.2 | AA428312 (83988_at) expression change (lot 2 Day 7 AI): −5.4 | AA442232 (59109_at) expression change (lot 2 Day 7 AI): −2.2 | AA456099 (59567_at) expression change (lot 2 Day 7 AI): −3.5 | AA772055 46104_at expression change (lot 2 Day 7 AI): −15.1 | AA779895 59136_at expression change (lot 2 Day 7 AI): −6.6 | ABCC5 1932_at expression change (lot 2 Day 7 AI): −5 | AF052107 38262_at expression change (lot 2 Day 7 AI): −6.5 | AI264299 (84903_f_at) expression change (lot 2 Day 7 AI): −5.9 | AI432375 (49819_at) expression change (lot 2 Day 7 AI): −5 | AI669212 55436_at expression change (lot 2 Day 7 AI): −6.9 | AI740855 (83076_at) expression change (lot 2 Day 7 AI): −3.5 | AI761647 40191_s_at expression change (lot 2 Day 7 AI): −4
